The subject of series [1] is HT-22. As to the kind of experiment: Neuroprotective activity against glutamate-induced cell death in mouse HT22 cells assessed as increase in cell viability at 0.15 to 38.46 uM incubated for 12 hrs by calcein-AM dye and propidium iodide staining based analysis. Format: functional. The note with it: dose microM 0.15-38.46, time 12.0 hrs.
In series [2] the test system is HT-22. As to the kind of experiment: Induction of apoptosis in mouse HT22 cells assessed as early apoptotic cells at 12.8 uM by Annexin-V FITC and propidium iodide staining based flow cytometric analysis (reference value: 3.37 %). Format: cell-based. The note with it: ht-22, 12.8 µM.
The test system of series [3] is HT-22. Put plainly: Neuroprotective activity against glutamate-induced cell death in mouse HT22 cells assessed as late apoptotic cells at 12.8 uM by Annexin-V FITC and propidium iodide staining based flow cytometric analysis (reference value: 4.62 %). Format: functional.
The subject of series [4] is HT-22. Put plainly: Neuroprotective activity against glutamate-induced cell death in mouse HT22 cells assessed as cell viability at 12.8 uM incubated for 12 hrs by calcein AM dye and propidium iodide staining based analysis (reference value: 50%). The note with it: read-out: Activity. The class given is functional.
Series [5] concerns Caenorhabditis elegans. Put plainly: Neuroprotective activity against 6-OHDA induced neuronal dysfunction in Caenorhabditis elegans N2 assessed as increase in number of body bending at 100 uM incubated for 1 hr and measured for 20 sec. Format: functional, organism-based.
Series [6] is described as follows: Antioxidant activity assessed as DPPH radical scavenging activity. Format: functional.
The test system of series [7] is HT-22. As to the kind of experiment: Induction of apoptosis in mouse HT22 cells assessed as necrotic cells at 12.8 uM by Annexin-V FITC and propidium iodide staining based flow cytometric analysis (reference value: 2.53 %). The class given is cell-based. The note with it: ht-22, 12.8 µM.
Series [8] concerns HT-22. Put plainly: Neuroprotection against glutamate-induced apoptosis in mouse HT22 cells assessed as reduction in bax protein level at 1.4 to 12.8 uM by Western blot analysis. Format: functional, cell-based. The note with it: dose microM 1.4-12.8.
The test system of series [9] is HT-22. Put plainly: Neuroprotection against glutamate-induced apoptosis in mouse HT22 cells assessed as decrease in translocation of AIF to nucleus at 12.8 uM by immunostaining analysis. Format: functional, cell-based.
Series [10] has as its system HT-22. Put plainly: Neuroprotection against glutamate-induced Ca2+ homeostasis disruption in mouse HT22 cells assessed as reduction in intracellular Ca2+ uptake at 1.4 to 12.8 uM by Fluo3-AM staining based fluorescent microscopic method. The class given is functional, cell-based. The note with it: dose microM 1.4-12.8.
Series [11] deals with HT-22. Put plainly: Neuroprotection against glutamate-induced apoptosis in mouse HT22 cells assessed as increase in bcl2 protein level at 1.4 to 12.8 uM by Western blot analysis. The class given is functional, cell-based. The note with it: dose microM 1.4-12.8.
The nature of series [12]: Induction of apoptosis in mouse HT22 cells assessed as viable cells at 12.8 uM by Annexin-V FITC and propidium iodide staining based flow cytometric analysis (reference value: 87.05 %). Format: cell-based, HT-22. The note with it: read-out: Activity.
The test system of series [13] is HT-22. As to the kind of experiment: Neuroprotective activity against glutamate-induced cell death in mouse HT22 cells assessed as live cells at 12.8 uM by Annexin-V FITC and propidium iodide staining based flow cytometric analysis (reference value: 15.03 %). The class given is functional.
The subject of series [14] is HT-22. As to the kind of experiment: Neuroprotective activity against glutamate-induced cell death in mouse HT22 cells assessed as necrotic cells at 12.8 uM by Annexin-V FITC and propidium iodide staining based flow cytometric analysis (reference value: 0.51 %). The class given is functional.
The test system of series [15] is HT-22. Put plainly: Inhibition of glutamate-induced ERK activation in mouse HT22 cells assessed as reduction in phosphorylated ERK protein level by Western blot analysis. The class given is cell-based. The note with it: dose microM 1.4-12.8.
Series [16] addresses T1, Nuclear factor erythroid 2-related factor 2 (Homo sapiens) (UniProt Q16236).
T1 sequence (whole entry): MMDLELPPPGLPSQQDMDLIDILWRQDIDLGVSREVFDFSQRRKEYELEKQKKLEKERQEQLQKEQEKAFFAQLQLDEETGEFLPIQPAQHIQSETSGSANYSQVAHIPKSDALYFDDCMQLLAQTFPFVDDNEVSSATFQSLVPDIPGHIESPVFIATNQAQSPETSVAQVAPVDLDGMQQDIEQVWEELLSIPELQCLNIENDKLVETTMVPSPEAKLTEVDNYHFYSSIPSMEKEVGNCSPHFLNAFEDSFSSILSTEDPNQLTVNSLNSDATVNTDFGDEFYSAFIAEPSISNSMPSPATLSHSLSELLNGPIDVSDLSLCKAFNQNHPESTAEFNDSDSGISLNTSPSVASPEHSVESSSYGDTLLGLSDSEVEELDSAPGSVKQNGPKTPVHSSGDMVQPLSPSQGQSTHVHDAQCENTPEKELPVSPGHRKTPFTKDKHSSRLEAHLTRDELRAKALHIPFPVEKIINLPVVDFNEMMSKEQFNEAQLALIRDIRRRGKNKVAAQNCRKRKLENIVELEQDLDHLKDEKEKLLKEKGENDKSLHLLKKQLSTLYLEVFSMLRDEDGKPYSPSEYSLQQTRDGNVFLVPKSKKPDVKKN
Put plainly: Activation of Nrf2 in human HepG2 cells co-transfected with ARE luciferase gene assessed as increase in ARE-driven luciferase activity by luciferase reporter gene assay. The class given is cell-based. The note with it: filed as activator.

Series [17] has as its system HT-22. As to the kind of experiment: Neuroprotective activity against glutamate-induced oxidative stress in mouse HT22 cells assessed as reduction in intracellular ROS accumulation at 12.8 uM by DCF-DA staining based fluorescence assay. Format: functional, cell-based.
The subject of series [18] is HT-22. Put plainly: Inhibition of glutamate-induced JNK activation in mouse HT22 cells assessed as reduction in phosphorylated JNK protein level by Western blot analysis. Format: cell-based. The note with it: dose microM 1.4-12.8.
Series [19] addresses MAP kinase p38 (Mus musculus) (UniProt P47811+O08911+Q9WUI1+Q9Z1B7). As to the kind of experiment: Inhibition of glutamate-induced p38 MAPK activation in mouse HT22 cells assessed as reduction in phosphorylated p38 MAPK protein level by Western blot analysis. The class given is cell-based. The note with it: HT-22, dose microM 1.4-12.8.
The subject of series [20] is HT-22. Put plainly: Neuroprotection against glutamate-induced apoptosis in mouse HT22 cells assessed as decrease in translocation of AIF to nucleus at 12.8 uM by Western blot analysis. Format: functional, cell-based.
In series [21] the test system is Hippocampus. Put plainly: Inhibition of erastin induced ferroptotic-cell death in rat hippocampal culture by propidium iodide uptake based fluorescence analysis. The class given is functional, tissue-based.
Series [22] deals with HT-22. As to the kind of experiment: Induction of apoptosis in mouse HT22 cells assessed as late apoptotic cells at 12.8 uM by Annexin-V FITC and propidium iodide staining based flow cytometric analysis (reference value: 7.05 %). The class given is cell-based. The note with it: ht-22, 12.8 µM.
Series [23] relates to HT-22. As to the kind of experiment: Neuroprotective activity against glutamate-induced cell death in mouse HT22 cells assessed as early apoptotic cells at 12.8 uM by Annexin-V FITC and propidium iodide staining based flow cytometric analysis (reference value: 79.84 %). The class given is functional.

Activity calls are given as the source filed them. The calls are words filed in the database; no cut-off is given here.

Take `COc1ccc2c(c1)C(=O)/C(=C/c1cc(OC)c(Br)c(OC)c1)CC2`: the outcome in [1] was Active.

In the case of `COc1ccc2c(c1)C(=O)/C(=C/c1cc(OC)c(OC)cc1Br)CC2`, in series [1], the outcome was Active.

For the compound `COc1cccc(/C=C2\CCc3ccc(OC)cc3C2=O)c1`, the outcome in [1] was Active.

For `COc1ccc2c(c1)C(=O)/C(=C/c1cccc(O)c1)CC2`, the outcome in series [1] was inactive.

For the compound `COc1ccc2c(c1)C(=O)/C(=C/c1c[nH]c3ccccc13)CC2`, the Activity turned out to be 0.95% in series [2]; 5.92% in [3]; 2.08% in [7]; 91.37% in [13]; 1.68% in series [14]; 8.72% in [22]. For the same compound, the Activity in series [23] was 1.03%. Besides, the viability at 12.8 µM in [4] is > 80%; in series [12], 88.2%. The result in [5], in series [8], in series [9], in series [10], in [11] and in [16] was Active. The outcome in series [17] and in series [20] was Active. In series [6], the outcome was inactive. Further, the inhibition entry in series [15], in series [18] and in series [19] was “Dose-dependent effect” each time. Further, in series [21], the inhibition entry is “inactive”.

For `COc1ccc2c(c1)C(=O)/C(=C/c1ccc(O)cc1)CC2`, in series [1], the result was inactive.

For `COc1ccc2c(c1)C(=O)/C(=C/c1cc(OC)c(OC)c(OC)c1)CC2`, the result in [1] was Active.

For the compound `COc1ccc2c(c1)C(=O)/C(=C/c1ccc(N(C)C)cc1)CC2`, in [1], the outcome was Active.

For `COc1ccc2c(c1)C(=O)/C(=C/c1ccc(OC)c(OC)c1)CC2`, the result in series [1] was Active.

With `COc1cc(OC)c(/C=C2\CCc3ccc(OC)cc3C2=O)c(OC)c1`, the result in series [1] was Active.

(Values after ChEMBL document CHEMBL4699553, “Synthesis and biological evaluation of chalcone derivatives as neuroprotective agents against glutamate-induced HT22 mouse hippocampal neuronal cell death” (Bioorg Med Chem Lett, 2020).)
